Assay results reported in patent US9084760B2, “Increasing glutathione levels for therapy” (priority 2008, dated 2015).

Experiments:
Plasma lipid peroxides = Plasma lipid peroxides in nondiabetic elderly humans after 2-week supplementation (Example 4); format: in vivo; details: after 2-week oral supplementation
Experimental: (§1) Eight nondiabetic elderly humans were studied in the basal state, and after 2-week oral supplementation with either n-acetylcysteine alone, glycine alone, or both supplements, with a 2-week washout period in-between. […] Plasma lipid peroxides were measured as a marker of ongoing damage due to oxidative stress. Eight younger adult subjects were also recruited as controls.

red blood cell GSH = assay: Red blood cell GSH concentration and ASR in nondiabetic elderly humans after 2-week supplementation (Example 4); format: in vivo; details: after 2-week oral supplementation
Experimental: as §1

lipid peroxides (ROOH) = assay: Plasma ROOH and glucose in diabetics after 2-week supplementation (Example 3); format: in vivo, humans; details: after 2-week dietary supplementation
Experimental: (§2) Eight diabetics were studied before and after 2-week dietary supplementation with either n-acetylcysteine (NAC), glycine, or both. Subjects received infusions of ^2H2-glycine to measure the concentration, fractional synthetic rates (FSR) and absolute synthetic rates (ASR) of red cell GSH. Plasma ROOH and glucose levels were measured. Eight non-diabetic subjects were studied as controls.

red cell GSH = assay: Red cell GSH concentration, FSR and ASR in diabetics after 2-week supplementation (Example 3); format: in vivo, humans; details: after 2-week dietary supplementation, Mean±SE
Experimental: as §2

## CC(=O)N[C@@H](CS)C(=O)O [n-acetylcysteine]
Plasma lipid peroxides
  concentrations of lipid peroxides: 3.22±1.29 mmol/L ROOH
Red blood cell GSH
  GSH concentration: 1.37±0.30 mmol/L RBC
  GSH-ASR: 0.92 ± 0.23 mmol/L/day
Lipid peroxides (ROOH)
  glycemia: remained unchanged
Lipid peroxides (ROOH); plasma
  ROOH concentrations: 5.78±0.78
Red cell GSH
  GSH ASR: 0.93 ± 0.18 mmol/L/day
  GSH FSR: 61±2 %/d
  GSH concentration: 1.61±0.15 mmol/LRBC

## NCC(=O)O [glycine]
Plasma lipid peroxides
  concentrations of lipid peroxides: 3.57±1.13 mmol/L ROOH
Red blood cell GSH
  GSH concentration: 1.21±0.27 mmol/L RBC
  GSH-ASR: 0.71 ± 0.05 mmol/L/day
